In US20080269161A1, “Compositions and Methods Relating to Mitochondrial Hyperpolarization in Neurological Disease” (priority 2005, published 2008):
Entries after “also recorded” stand apart in the source; their conditions may differ. Read-outs that look alike come from different tables or passages of the source.

Assays:
[1] = system: mitochondrial membrane potential of rat cortical neurons; format: cell-based
Description: Curve fits are non-formulaic software interpolations of the data points.
Changes in mitochondrial function that could be associated with the increased vesicular activity were evaluated. Mitochondria generate the energy for synaptic transmission in the form of ATP, and as a byproduct of this oxidative phosphorylation, they are also one of the primary producers of intracellular ROS. Two key mitochondrial parameters were examined in response to Tat and PAF: 1) mitochondrial membrane potential (ΔΨm) [as assessed by mitochondrial uptake of the lipophilic cationic dyes tetramethylrhodamine ethyl or methyl ester (TMRE or TMRM respectively)], and 2) ATP production (as measured by luciferase assay). The electronegative mitochondrial membrane potential provides the driving force for calcium buffering and ATP production by the mitochondria, and as such, ΔΨm is frequently used as an indicator of mitochondrial health and energetic capacity. Moreover, fluctuations in ΔΨm can trigger mitochondrial release of pro-apoptotic factors, an event most frequently associated with a loss of ΔΨm.
Monitoring alterations in ΔΨm with TMRM: In the relevant methods described herein, changes in mitochondrial membrane potential (ΔΨm) in response to Tat or PAF treatment is assessed by TMRM, which must equilibrate across the plasma membrane before entering the mitochondria; and in whole cell applications dye concentration in the mitochondria is dependent on both plasma membrane potential (ΔΨp) and AΨm. At sufficiently low dye concentrations (TMRM =1 nM, i.e. high cell/dye ratio) and normal membrane potentials, ≧95% of the dye is in the mitochondria, and ≦1% in the media, which results in an approximately 100× sensitivity of the dye to ΔΨm over ΔΨp, given equivalent changes in plasma or mitochondrial membrane potential [Rottenberg, H. and S. Wu, Biochim Biophys Acta, 1998. 1404(3): p. 393-40].
For these methods, primary rodent neurons are treated with reagent under normal culture conditions for the indicated time period, followed by removal of the media, 1×2 minute wash in pre-warmed 37° C. HBSS plus 10 mM glucose and 10 mM HEPES (HBSS+), then incubation in HBSS+ with 1 nM TMRE/M. Following equilibration of the dye for 20 minutes to ensure distribution across the mitochondrial membrane, the cells are imaged while remaining in the 1 nM TMRE/M solution, as is necessary for a continued dye equilibrium state. Random field images are taken using an Olympus IX-70 microscope and 40× objective (fluorescent excitation: 545; emission: 610) and Apogee KX32ME CCD camera, and the mean relative fluorescent unit (RFU) value of the neuronal soma and processes (excluding mitochondria deficient regions) is quantified using Scanalytics IPLab software.

[2] = system: CA1 pyramidal neurons in hippocampal slices; set-up: species or system rodent
Description: CA1 pyramidal neurons were exposed to 1 μM cPAF or vehicle for 30-60min and simultaneously imaged and recorded by whole-cell patch clamp before and after delivery of a high-frequency stimulus (HFS: three 1s, 100 Hz trains, every 20 s) applied to Schaffer collateral axons via a bipolar stimulating electrode planted in the stratum radiatum. (A) Dendrite beading in a cPAF-exposed cell 45min after HFS, with no disruption of dendrite or spine morphology in control cells. […] (C) Excitatory synaptic transmission between Shaffer collateral axons and CA1 pyramidal neurons is strongly potentiated following HFS in control slices. […] (EPSP traces at baseline and 40 min from representative control cell and cPAF-treated beaded cell are at right.) […]
Explant hippocampal slices are exposed to HIV-1 neurotoxins±agents that reverse mitochondrial hyperpolarization. Beading and LTP are then be measured:
Hippocampal slice preparation: Brains from anesthetized P14-28 rodents are rapidly removed and cooled in sucrose based artificial cerebrospinal fluid (ACSF) containing in mM: 110 sucrose, 60 NaCl, 3 KCl, 1.25 NaH2PO4, 28 NaHCO3, 10 D-glucose, 0.5 CaCl2, 7 MgSO4, 0.6 ascorbate. The brains are blocked and fixed to a specimen stage with cyanoacrylate. Coronal slices (250-400 μm in thickness) are cut with a vibroslicer (World Precision Instruments, Fla., USA) equipped with a Peltier cooling system. The middle four to six slices of each hippocampus (with the entorhinal cortex removed) are placed into a holding chamber prior to use.
Measuring dendritic beading and postsynaptic potentials in single CA1 cells in hippocampal slices: Dendritic arbors of individual CA1 pyramidal cells are imaged while simultaneously recording excitatory postsynaptic potentials in the same cell by patch clamp recordings in whole-cell configuration. Recording pipettes ([…] resistance) are pulled from 1.5 mm borosilicate glass using a horizontal Flaming/Brown micropipette puller (Sutter Instrument Co, Calif.), fire-polished, and filled with intracellular recording solution (in mM: KCl 20, potassium gluconate 130, EGTA 0.5, HEPES 10, MgSO4 2, ATP 2.5, GTP 0.5, pH 7.3). In order to visualize dendrites of the recorded cell, Alexa 568 hydrazide (30 μM) is included in the recording pipette and is injected by small negative current pulses for 15-20 min prior to recording in order to fill the dendritic arbor. Hippocampal slices are bathed in artificial CSF (containing, in mM: NaCl 125, KCl 2.5, NaH2PO4 1.25, NaHCO3 25, CaCl2 2, MgCl2 1, D-glucose 25, oxygenated and buffered with 5% CO2). Membrane potentials of CA1 pyramidal cells are recorded in current clamp mode, and postsynaptic potentials are evoked by test pulses of constant-current stimulation applied via a bipolar stimulating electrode placed 50-200 μm away in the stratum radiatum. Bicuculline (10 μM) is included in the bath to isolate excitatory postsynaptic potentials. After at least 10 min of consistent baseline recording, a high-frequency LTP induction stimulus (HFS, consisting of four 1 s, 100 Hz trains delivered every 15 s) is applied. EPSPs are recorded for 60 min following HFS. At the same time, dendrites are imaged at 40× magnification by fluorescence microscopy, using a shutter to limit fluorescent light exposure and prevent phototoxic injury to the slice. Serial images of dendrites are compared to detect development of focal swellings along dendritic shafts following HFS. Cells are scored as beaded if swellings develop along any of their dendrites.
Field potential recording and induction of LTP in hippocampal slices: Single-cell recordings are complemented by extracellular field potential recordings: while single cell recordings allow correlation of electrophysiologic data with dendritic beading in the same cell, extracellular recordings sample responses from populations of dendrites and are less invasive. […]

[3] = system: NO release by human primary monocytes; assay: Tat-induced nitric oxide release by primary monocytes (Griess reaction); format: cell-based; conditions: co-treatment with Tat, 8 h; R-PIA 1 μM
Description: Human primary monocytes were treated with Tat in the presence or absence of the indicated adenosine receptor agonists for 8 h, and nitric oxide levels in the culture medium of the cells were then quantitated using the Griess reaction (Active Motif). Data represent mean+SEM of three experiments.
(§1) The effect of adenosine receptor activation on Tat-induced upregulation of iNOS expression and NO release was then determined. […] In contrast, incubation of cells with 1 μM R-PIA (an adenosine A1 receptor agonist) had no effect on Tat-induced iNOS expression or NO release (FIG. 11), implicating the A2A and A3 receptor subtypes in this anti-inflammatory effect. ZM241385 (an A2AR antagonist) or MRS 1220 (an A3R antagonist) could prevent the anti-inflammatory effects of CGS21680 or IB-MECA, respectively.

[4] = system: iNOS expression in human primary monocytes; assay: Tat-induced iNOS expression in primary monocytes; format: cell-based; conditions: for prevention of the anti-inflammatory effects of CGS21680 or IB-MECA, respectively: Tat-treated monocytes, iNOS/NO
Description: as §1

cortical cultures = assay: Tat-induced apoptotic cell death in cortical cultures
Description: Quantifying Cell Death: Cell death is assessed by visualizing fragmented DNA per the TUNEL method as described previously as well [Perry, S. W., et al., J Neurosci Res, 2004. […] Briefly, after treatment in 24 well plates, cells are fixed with Histochoice MB Tissue Fixative (Amresco) then TUNEL-labeled with the ApopTag kit (Chemicon) according to kit instructions. Cells are visualized under Hoffman modulation contrast optics using a 40× objective, and images taken of ten random fields per well from 3 replicate wells per condition. Data is expressed as percent Apoptag-positive neurons [(# Apoptag positive neurons/)(Total neurons))33 100] (or Trypan blue positive neurons where applicable) per field, then field values averaged for a mean cell death value per well. Mean values from 3 or more (see “power” calculations below) wells are averaged for a final mean cell death value for each condition±SEM; the analyses is made without knowledge of the treatment group.

[5] = system: rat cerebellar granule neurons (CGNs); assay: Tat-induced apoptosis of cerebellar granule neurons (TUNEL); format: cell-based; conditions: Tat 500 nM, 48 h
Description: (§2) CGNs were exposed to HIV-1 Tat (Tat, 500 nM), or vehicle alone (NT), in the presence or absence of the A2A antagonist, ZM241385. After 48 h, cultures were analyzed for the percentage of apoptotic cells using the TUNEL assay. Data represent mean±SEM for one experiment that was performed in triplicate; data are representative of two independent experiments.
as §2, with “(No Tat),” for “(NT),”, “A2AR antagonists, ATL455 and ZM241385, or the A2AR agonists ATL313 and CGS21680.” for “A2A antagonist, ZM241385.”
(1) Primary rat cerebellar granule neurons (CGNs). CGNs represent a highly homogenous population of primary neurons which are susceptible to Tat and PAF-mediated cell killing and have been used in many of previous studies. CGN cells are isolated according to published procedures [Maggirwar, S. B., et al. 1999. J Neurochem 73:578-86] [Tong, N., et al. 2001. Eur J Neurosci 13:1913-22].
78(4): p. […] 22(6): p. 1102-6].
Primary rat cerebellar granule neurons (CGNs) were exposed to a neurotoxic concentration of HIV-1 Tat, in the presence or absence of an A2AR antagonist (ZM241385). […] It is important to note that CGNs express adenosine A2A receptors [Vacas, J., et al. 2003. Brain Res 992:272-280].
Primary cultures of rat cerebellar granule neurons (CGNs) were exposed to HIV-Tat ([…]) alone or together with increasing doses of the A2AR antagonist ATL-455 or A2A agonists ATL313 or CGS21680. Cells are treated with the test compounds for defined time intervals of up to 48 hours (1, 4, 8, 24, and 48 hours).

## N#CC(C#N)=NNc1ccc(OC(F)(F)F)cc1 [FCCP, Trifluorocarbonylcyanide Phenylhydrazone]
[1]
  effect on mitochondrial TMRE/M signal: substantially diminished; also recorded: loss of TMRM signal
  effect on ΔΨm: normalizes ΔΨm back to baseline levels but not below
[2]
  Beading Prediction: Prevented
  LTP Prediction: Achieved
  Δψm: Normalized
[2]; FCCP, no neurotoxin (vehicle)
  Δψm: Slightly

## CNC(=O)[C@H]1O[C@@H](n2cnc3c(NCc4cccc(I)c4)ncnc32)[C@H](O)[C@@H]1O [IB-MECA]
[3]
  effect on Tat-induced NO secretion: complete abrogation
[4]; co-treatment with Tat
  inhibition of Tat-induced iNOS expression: roughly 50%

## O=C(Cc1ccccc1)Nc1nc2ccc(Cl)cc2c2nc(-c3ccco3)nn12 [MRS 1220]
[4]
  prevention of the anti-inflammatory effects of CGS21680 or IB-MECA, respectively: prevent

## C[C@H](Cc1ccccc1)Nc1ncnc2c1ncn2[C@@H]1O[C@H](CO)[C@@H](O)[C@H]1O [R-PIA]
[3]
  effect on Tat-induced NO secretion: no effect
[4]; 1 μM
  effect on Tat-induced iNOS expression: no effect

## CCCCNC(=O)NS(=O)(=O)c1ccc(C)cc1 [Tolbutamide]
Cortical cultures; tolbutamide 100 μM alone
  toxicity, alone: no toxicity
Cortical cultures; tolbutamide 100 μM, Tat 0.1 or 2.5 μg/ml, 24 hours
  effect on Tat's induction of apoptotic cell death: attenuating apoptotic cell death; also recorded: partially attenuated
[1]; tolbutamide 100 μM alone
  effect on ΔΨm, alone: no significant effect
[1]; tolbutamide 100 μM, Tat 0.1 or 2.5 μg/ml, 1 and 24 hours
  effect on Tat mediated rise in ΔΨm: blocked; also recorded: completely prevented

## Nc1nc(NCCc2ccc(O)cc2)nc2nc(-c3ccco3)nn12 [ZM241385, 4(2-[7-Amino-2-(2-furyl)[1,2,4]triazolo[2,3-a][1,3,5]triazin-5-ylamino]ethyl)phenol]
[4]
  prevention of the anti-inflammatory effects of CGS21680 or IB-MECA, respectively: prevent
[5]
  effect on Tat-induced neuronal apoptosis: protect neurons; also recorded: protects neurons against Tat-induced apoptosis

## TNF-α
[1]; neurotoxin alone
  effect on ΔΨm: dose dependent increases
